Assay results published in patent US12655120B2, “GPR52 modulator compounds” (NXERA PHARMA UK LIMITED, priority 2020, dated 2026).

Molecular target: T1, human GPR52 (Homo sapiens, UniProt Q9Y2T5)
T1 construct: expressed in transfected cells; host or cells: HEKf suspension cells infected with BacMam virus
Test: GPR52 Agonist Functional cAMP Assay
Format: cell-based
Settings: for EC50: HEKf cells infected with human GPR52 BacMam, HTRF cAMP, 30 min at 37° C., read-out: pEC50 average (converted); for Emax: normalised to DMSO (0%) and maximal compound 7m (J. Med. Chem., 2014, 57, 5226) response (100%)
Method: HEKf suspension cells were infected for 24 h with 0.1% v/v human GPR52 expressing BacMam virus, a modified baculovirus designed for mammalian gene expression. Following BacMam infection, cells were pelleted by centrifugation (335 g, 5 min), resuspended in cell freezing medium (Sigma) and frozen at −150° C. until required. On experiment day, 25 nL GPR52 compound dilutions, prepared in DMSO, were stamped onto proxiplates (PerkinElmer) by a LabCyte ECHO acoustic dispenser. Frozen cells were thawed and resuspended in assay stimulation buffer (Cisbio) containing 0.5 mM 3-iso-butyl-1-methylxanthine (IBMX, Sigma) to achieve a density of 2000 cells per well. 10 μl cells were added to assay plates using a Multidrop Combi Reagent Dispenser (ThermoFisher) before centrifugation (335 g, 1 min). Cells were incubated with compounds at 37° C. for 30 min prior to addition of cAMP detection reagents (HiRange cAMP kit, Cisbio) which were prepared according to the manufacturer's instructions. Plates were shaken for 1 h at room temperature before reading on a PHERAstar FS plate reader (BMG Labtech) using standard HTRF settings. HTRF ratios were obtained by dividing the acceptor emissions (665 nm) by the donor emissions (620 nm) and multiplying by 10,000.

T1 sequence (Q9Y2T5 whole entry): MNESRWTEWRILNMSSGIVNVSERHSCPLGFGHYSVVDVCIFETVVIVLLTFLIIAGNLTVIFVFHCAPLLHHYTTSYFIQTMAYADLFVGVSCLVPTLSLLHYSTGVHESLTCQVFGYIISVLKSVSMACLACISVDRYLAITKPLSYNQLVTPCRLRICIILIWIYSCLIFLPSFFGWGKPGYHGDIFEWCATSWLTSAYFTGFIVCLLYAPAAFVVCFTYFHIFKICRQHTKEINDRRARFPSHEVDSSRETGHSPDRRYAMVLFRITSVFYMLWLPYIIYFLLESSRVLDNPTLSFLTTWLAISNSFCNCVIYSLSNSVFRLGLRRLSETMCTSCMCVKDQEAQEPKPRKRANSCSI

Question: With Cc1nn(-c2ccnc(C(O)c3cc(F)cc(C(F)(F)F)c3)c2)cc1C(N)=O (stereo not drawn) [Example 59, 1-(2-((3-fluoro-5-(trifluoromethyl)phenyl)(hydroxy)methyl)pyridin-4-yl)-3-methyl-1H-pyrazole-4-carboxamide] as the molecule, how does the EC50 read?
Answer: 200 nM

Question: What about the Emax of the same molecule?
Answer: 79%

Question: What does the source list for CNC(=O)c1ccn(-c2cc(Cc3cc(F)cc(C(F)(F)F)c3)ccn2)n1 [Example 31, 1-(4-(3-fluoro-5-(trifluoromethyl)benzyl)pyridin-2-yl)-N-methyl-1H-pyrazole-3-carboxamide]?
Answer: EC50: 20 nM; Emax: 87%

Question: How did the EC50 turn out when NC(=O)c1cc(CO)n(-c2cc(Cc3cc(F)cc(C(F)(F)F)c3)ccn2)n1 [Example 54, 1-(4-(3-fluoro-5-(trifluoromethyl)benzyl)pyridin-2-yl)-5-(hydroxymethyl)-1H-pyrazole-3-carboxamide] was run?
Answer: 79.4 nM

Question: And the Emax?
Answer: 92%

Question: For CNC(=O)c1ccn(-c2ccnc(Cc3cc(F)cc(C(F)(F)F)c3)c2)n1 [Example 55, 1-(2-(3-fluoro-5-(trifluoromethyl)benzyl)pyridin-4-yl)-N-methyl-1H-pyrazole-3-carboxamide], which EC50 is on record?
Answer: 126 nM

Question: What about the Emax of the same molecule?
Answer: 83%

Question: Cc1nn(-c2cc(Cc3cc(F)cc(C(F)(F)F)c3)ccn2)c(CO)c1C(=O)NCCO [Example 40, 1-(4-(3-fluoro-5-(trifluoromethyl)benzyl)pyridin-2-yl)-N-(2-hydroxyethyl)-5-(hydroxymethyl)-3-methyl-1H-pyrazole-4-carboxamide] was tested. Which Emax did it give?
Answer: 101%

Question: Cc1nn(-c2ccnc(Cc3cc(F)cc(C(F)(F)F)c3)c2)cc1C(=O)N(C)C [Example 18, 1-(2-(3-fluoro-5-(trifluoromethyl)benzyl)pyridin-4-yl)-N,N,3-trimethyl-1H-pyrazole-4-carboxamide] was tested. Which EC50 did it give?
Answer: 79.4 nM

Question: What about the Emax of the same molecule?
Answer: 92%

Question: Which EC50 does the source give for NC(=O)c1cn(-c2ccnc(Cc3cc(F)cc(C(F)(F)F)c3)c2)nc1C1CC1 [Example 27, 3-cyclopropyl-1-(2-(3-fluoro-5-(trifluoromethyl)benzyl)pyridin-4-yl)-1H-pyrazole-4-carboxamide] here?
Answer: 25.1 nM

Question: What about the Emax of the same molecule?
Answer: 97%

Question: Cc1cc(C(N)=O)nn1-c1cc(Cc2cc(F)cc(C(F)(F)F)c2)ccn1 [Example 30, 1-(4-(3-fluoro-5-(trifluoromethyl)benzyl)pyridin-2-yl)-5-methyl-1H-pyrazole-3-carboxamide] was tested. Which EC50 did it give?
Answer: 158 nM

Question: And the Emax?
Answer: 93%

Question: For NC(=O)c1nn(-c2cc(Cc3cc(F)cc(C(F)(F)F)c3)ccn2)cc1CO [Example 49, 1-(4-(3-fluoro-5-(trifluoromethyl)benzyl)pyridin-2-yl)-4-(hydroxymethyl)-1H-pyrazole-3-carboxamide], which EC50 is on record?
Answer: 63.1 nM

Question: And the Emax?
Answer: 93%

Question: NC(=O)c1ccn(-c2cc(Cc3cc(F)cc(C(F)(F)F)c3)ccn2)n1 [Example 9, 1-(4-(3-fluoro-5-(trifluoromethyl)benzyl)pyridin-2-yl)-1H-pyrazole-3-carboxamide] was tested. Which EC50 did it give?
Answer: 100 nM

Question: What about the Emax of the same molecule?
Answer: 85%

Question: What does the source list for CNC(=O)c1cn(-c2cccc(Cc3cc(F)cc(C(F)(F)F)c3)n2)nc1CO [Example 48, 1-(6-(3-fluoro-5-(trifluoromethyl)benzyl)pyridin-2-yl)-3-(hydroxymethyl)-N-methyl-1H-pyrazole-4-carboxamide]?
Answer: EC50: 1580 nM; Emax: 36%

Question: With NC(=O)c1cn(-c2ccnc(Cc3cc(F)cc(C(F)(F)F)c3)c2)nc1C(F)(F)F [Example 24, 1-(2-(3-fluoro-5-(trifluoromethyl)benzyl)pyridin-4-yl)-3-(trifluoromethyl)-1H-pyrazole-4-carboxamide] as the molecule, how does the EC50 read?
Answer: 25.1 nM

Question: And the Emax?
Answer: 91%

Question: With CNC(=O)c1nn(-c2cc(Cc3cc(F)cc(C(F)(F)F)c3)ccn2)nc1C [Example 58, 2-(4-(3-fluoro-5-(trifluoromethyl)benzyl)pyridin-2-yl)-N,5-dimethyl-2H-1,2,3-triazole-4-carboxamide] as the molecule, how does the EC50 read?
Answer: 15.8 nM

Question: And the Emax?
Answer: 92%

Question: Which results are given for CCc1nn(-c2ccnc(Cc3cc(F)cc(C(F)(F)F)c3)c2)cc1C(N)=O [Example 25, 3-ethyl-1-(2-(3-fluoro-5-(trifluoromethyl)benzyl)pyridin-4-yl)-1H-pyrazole-4-carboxamide]?
Answer: EC50: 10 nM; Emax: 99%

Question: Which results are given for NC(=O)c1cnn(-c2cc(Cc3cc(F)cc(C(F)(F)F)c3)ccn2)n1 [Example 4, 2-(4-(3-fluoro-5-(trifluoromethyl)benzyl)pyridin-2-yl)-2H-1,2,3-triazole-4-carboxamide]?
Answer: EC50: 316 nM; Emax: 84%

Question: How did the EC50 turn out when O=C(c1ccn(-c2cc(Cc3cc(F)cc(C(F)(F)F)c3)ccn2)n1)N1CCCC1 [Example 33, (1-(4-(3-fluoro-5-(trifluoromethyl)benzyl)pyridin-2-yl)-1H-pyrazol-3-yl)(pyrrolidin-1-yl)methanone] was run?
Answer: 126 nM

Question: And the Emax?
Answer: 87%

Question: How did the EC50 turn out when NC(=O)c1ccn(-c2ccnc(Cc3cc(F)cc(C(F)(F)F)c3)c2)n1 [Example 29, 1-(2-(3-fluoro-5-(trifluoromethyl)benzyl)pyridin-4-yl)-1H-pyrazole-3-carboxamide] was run?
Answer: 1260 nM

Question: What about the Emax of the same molecule?
Answer: 86%

Question: CNC(=O)c1cnn(-c2cc(Cc3cc(F)cc(C(F)(F)F)c3)ccn2)n1 [Example 56, 2-(4-(3-fluoro-5-(trifluoromethyl)benzyl)pyridin-2-yl)-N-methyl-2H-1,2,3-triazole-4-carboxamide] was tested. Which EC50 did it give?
Answer: 100 nM

Question: And the Emax?
Answer: 84%

Question: Cc1nn(-c2ccnc(Cc3cc(F)cc(C(F)(F)F)c3)c2)cc1C(=O)N1CCCC1 [Example 16, (1-(2-(3-fluoro-5-(trifluoromethyl)benzyl)pyridin-4-yl)-3-methyl-1H-pyrazol-4-yl)(pyrrolidin-1-yl)methanone] was tested. Which EC50 did it give?
Answer: 31.6 nM

Question: And the Emax?
Answer: 93%

Question: With CNC(=O)c1c(C)nn(-c2cc(Cc3cc(F)cc(C(F)(F)F)c3)ccn2)c1CO [Example 43, 1-(4-(3-fluoro-5-(trifluoromethyl)benzyl)pyridin-2-yl)-5-(hydroxymethyl)-N,3-dimethyl-1H-pyrazole-4-carboxamide] as the molecule, how does the Emax read?
Answer: 101%

Question: What does the source list for Cc1nn(-c2ccnc(Cc3cc(F)cc(C(F)(F)F)c3)c2)cc1C(=O)NCCO [Example 20, 1-(2-(3-fluoro-5-(trifluoromethyl)benzyl)pyridin-4-yl)-N-(2-hydroxyethyl)-3-methyl-1H-pyrazole-4-carboxamide]?
Answer: EC50: 15.8 nM; Emax: 96%

Question: What does the source list for CNC(=O)c1cnn(-c2cc(Cc3cc(F)cc(C(F)(F)F)c3)ccn2)c1 [Example 3, 1-(4-(3-fluoro-5-(trifluoromethyl)benzyl)pyridin-2-yl)-N-methyl-1H-pyrazole-4-carboxamide]?
Answer: EC50: 316 nM; Emax: 86%

Question: What does the source list for CNC(=O)c1cn(-c2cc(Cc3cc(F)cc(C(F)F)c3)ccn2)nc1C [Example 45, 1-(4-(3-(difluoromethyl)-5-fluorobenzyl)pyridin-2-yl)-N,3-dimethyl-1H-pyrazole-4-carboxamide]?
Answer: EC50: 200 nM; Emax: 91%

Question: Cc1cnc(Cc2cc(F)cc(C(F)(F)F)c2)cc1-n1cc(C(N)=O)c(C)n1 [Example 52, 1-(2-(3-fluoro-5-(trifluoromethyl)benzyl)-5-methylpyridin-4-yl)-3-methyl-1H-pyrazole-4-carboxamide] was tested. Which EC50 did it give?
Answer: 100 nM

Question: What about the Emax of the same molecule?
Answer: 100%

Question: For COCCNC(=O)c1ccn(-c2cc(Cc3cc(F)cc(C(F)(F)F)c3)ccn2)n1 [Example 36, 1-(4-(3-fluoro-5-(trifluoromethyl)benzyl)pyridin-2-yl)-N-(2-methoxyethyl)-1H-pyrazole-3-carboxamide], which EC50 is on record?
Answer: 126 nM

Question: What about the Emax of the same molecule?
Answer: 87%
